Laboratory results: the NIST ThermoML archive (doi:10.1016/j.jct.2010.11.004)
Numbers after ± are expanded uncertainties.

conditions: 298.15 K; 101.33 kPa; Liquid; Vibrating tube method

Compound | mass density [kg/m3]
CCCCCCCCC(C)=O [2-decanone] | 820.63 ± 0.24
CCCCCOCCCCC [dipentyl ether] | 779.1 ± 0.24
CCCCCCCCCCCC [dodecane] | 745.28 ± 0.25
CCCCCCCCCCCCCCCC [hexadecane] | 770.31 ± 0.24
CCCCCCCCCCCCCC [tetradecane] | 760.2 ± 0.24
